Patent publication US9481676B2, “Azepino[4,5-B]indoles and methods of use” (Medivation Technologies, Inc., priority 2008, dated 2016)

Key:
[1] = biological target: T1, human recombinant histamine H1 receptor (Homo sapiens, UniProt P35367); assay: Histamine H1 radioligand binding ([3H]Pyrilamine); conditions: compound at 1 μM; read-out: Histamine Binding (1 μM) H1, percent inhibition of specific binding
T1 construct: expressed in transfected cells; host or cells: CHO cells
How it was run: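 Membranes from CHO cells expressing the receptor were incubated with compound and 1.2 nM [3H]pyrilamine for 180 min at 25 °C in 50 mM Tris-HCl pH 7.4 with MgCl2, NaCl and sucrose; 1 μM pyrilamine defined non-specific binding. Filter-bound radioactivity was counted.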

[2] = biological target: T2, human recombinant adrenergic α1D receptor (Homo sapiens, UniProt P25100); assay: Adrenergic alpha1D radioligand binding ([3H]Prozosin); conditions: compound at 1 μM; read-out: Adrenergic (1 μM) α1D, percent inhibition of specific binding
T2 construct: expressed in transfected cells; host or cells: HEK-293 cells
T2 sequence (P25100 1-572): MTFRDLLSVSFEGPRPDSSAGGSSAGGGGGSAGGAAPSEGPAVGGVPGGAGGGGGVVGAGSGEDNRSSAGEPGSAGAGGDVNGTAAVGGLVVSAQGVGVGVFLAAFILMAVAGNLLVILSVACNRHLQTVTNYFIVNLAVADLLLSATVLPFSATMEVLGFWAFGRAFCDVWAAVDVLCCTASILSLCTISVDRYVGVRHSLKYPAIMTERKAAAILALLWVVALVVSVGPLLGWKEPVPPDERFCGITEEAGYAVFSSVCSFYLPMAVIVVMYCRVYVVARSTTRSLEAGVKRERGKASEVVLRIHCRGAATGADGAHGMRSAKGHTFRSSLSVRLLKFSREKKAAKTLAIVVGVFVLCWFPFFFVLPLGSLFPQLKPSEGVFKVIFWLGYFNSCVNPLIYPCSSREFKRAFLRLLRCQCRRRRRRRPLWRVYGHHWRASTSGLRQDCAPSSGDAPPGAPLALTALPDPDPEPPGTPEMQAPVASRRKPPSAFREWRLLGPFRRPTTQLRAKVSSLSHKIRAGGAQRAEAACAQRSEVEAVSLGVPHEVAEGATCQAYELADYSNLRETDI
Protocol: To evaluate in radioligand binding assays the activity of compounds of the invention, human recombinant adrenergic α1D receptor expressed in human embryonic kidney (HEK-293) cells (Kenny, B. A. et al. Br. J. Pharmacol. 115(6):981, 1995) in a 50 mM Tris-HCl buffer, pH 7.4, was used. Compounds of invention were incubated with 0.6 nM [^3H]Prozosin for 60 min. at 25° C. Non-specific binding was estimated in the presence of 10 μM phentolamine. Receptor proteins were filtered and washed, the filters were then counted to determine [^3H]Prozosin specifically bound. Compounds were screened at 1 μM or lower, using 1% DMSO as vehicle. Biochemical assay results are presented as the percent inhibition of specific binding in Table 5.

[3] = biological target: T3, human recombinant serotonin (5-Hydroxytryptamine) 5-HT2A receptor (Homo sapiens, UniProt P28223); assay: Serotonin 5-HT2A radioligand binding ([3H]Ketanserin); conditions: compound at 1 μM; read-out: Serotonin (1 μM) 5-HT2A, percent inhibition of specific binding
T3 construct: expressed in transfected cells; host or cells: CHO-K1 cells
T3 sequence (P28223 whole entry): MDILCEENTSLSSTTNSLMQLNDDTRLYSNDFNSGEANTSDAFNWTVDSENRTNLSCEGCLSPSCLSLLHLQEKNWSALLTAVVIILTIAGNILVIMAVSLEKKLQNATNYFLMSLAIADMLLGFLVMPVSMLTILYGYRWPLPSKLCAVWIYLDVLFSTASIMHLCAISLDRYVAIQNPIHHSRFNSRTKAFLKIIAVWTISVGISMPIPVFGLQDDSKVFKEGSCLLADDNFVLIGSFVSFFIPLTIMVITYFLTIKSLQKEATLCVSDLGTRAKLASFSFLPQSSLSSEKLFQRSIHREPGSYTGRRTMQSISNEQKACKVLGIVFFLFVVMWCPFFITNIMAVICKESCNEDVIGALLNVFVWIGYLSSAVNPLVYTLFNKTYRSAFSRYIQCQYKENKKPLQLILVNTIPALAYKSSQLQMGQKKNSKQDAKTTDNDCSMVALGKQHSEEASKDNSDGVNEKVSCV
How it was run: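 Percent inhibition of specific [3H]ketanserin (0.5 nM) binding, filtration read-out, with compounds at ≤1 μM (1% DMSO vehicle). Receptor source: recombinant human 5-HT2A in CHO-K1 cells, 50 mM Tris-HCl pH 7.4, 60 min, 25 °C; 1 μM mianserin gives nonspecific binding.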

[4] = biological target: T4, human recombinant serotonin (5-Hydroxytryptamine) 5-HT6 receptor (Homo sapiens, UniProt P50406); assay: Serotonin 5-HT6 radioligand binding ([3H]LSD); conditions: compound at 1 μM; read-out: Serotonin (1 μM) 5-HT6, percent inhibition of specific binding
T4 construct: expressed in transfected cells; host or cells: human HeLa cells
T4 sequence (P50406 whole entry): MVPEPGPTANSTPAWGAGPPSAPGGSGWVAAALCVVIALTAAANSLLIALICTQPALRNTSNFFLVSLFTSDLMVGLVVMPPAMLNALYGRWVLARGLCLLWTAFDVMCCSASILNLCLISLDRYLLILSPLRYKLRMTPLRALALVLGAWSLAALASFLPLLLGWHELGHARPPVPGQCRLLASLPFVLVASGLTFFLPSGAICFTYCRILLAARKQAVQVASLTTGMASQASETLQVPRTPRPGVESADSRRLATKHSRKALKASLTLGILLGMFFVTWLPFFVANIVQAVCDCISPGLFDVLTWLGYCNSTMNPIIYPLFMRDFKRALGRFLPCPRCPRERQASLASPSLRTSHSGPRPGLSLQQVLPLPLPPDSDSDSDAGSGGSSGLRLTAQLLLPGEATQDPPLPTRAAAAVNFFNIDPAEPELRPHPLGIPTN
How it was run: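 Human recombinant 5-HT6 receptor from HeLa cells incubated with 1.5 nM [3H]LSD for 120 min at 37° C in 50 mM Tris-HCl pH 7.4, 150 mM NaCl, 2 mM ascorbic acid, 0.001% BSA. Nonspecific binding defined with 5 μM serotonin; bound ligand counted after filtration.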

T1 sequence (P35367 whole entry): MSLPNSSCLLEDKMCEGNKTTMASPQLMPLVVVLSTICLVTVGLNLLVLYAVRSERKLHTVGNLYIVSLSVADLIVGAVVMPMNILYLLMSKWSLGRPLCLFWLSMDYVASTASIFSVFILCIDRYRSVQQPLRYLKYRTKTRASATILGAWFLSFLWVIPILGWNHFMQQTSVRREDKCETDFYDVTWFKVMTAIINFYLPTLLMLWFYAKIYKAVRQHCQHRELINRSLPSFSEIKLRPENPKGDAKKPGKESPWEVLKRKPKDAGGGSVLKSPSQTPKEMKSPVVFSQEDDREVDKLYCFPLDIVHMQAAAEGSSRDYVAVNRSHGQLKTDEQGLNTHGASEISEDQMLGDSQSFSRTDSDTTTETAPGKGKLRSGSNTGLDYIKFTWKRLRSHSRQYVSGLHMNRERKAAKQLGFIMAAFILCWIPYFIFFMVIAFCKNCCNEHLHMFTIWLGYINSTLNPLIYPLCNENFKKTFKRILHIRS

Structure (SMILES) | inhibition at 1 µM [1] [%] | inhibition at 1 µM [2] [%] | inhibition at 1 µM [3] [%] | inhibition at 1 µM [4] [%]
CN1CCc2c(n(CCc3ccccc3Cl)c3ccc(Cl)cc23)CC1 [Compound No. 29, 6-(2-chlorophenethyl)-9-chloro-1,2,3,4,5,6-hexahydro-3-methylazepino[4,5-b]indole] | 98 | 71 | 100 | 103
CN1CCc2c(n(CC(C)(O)c3ccc(Cl)cc3)c3ccc(Cl)cc23)CC1 (stereo not drawn) [Compound No. 12, 1-(9-chloro-2,3,4,5-tetrahydro-3-methylazepino[4,5-b]indol-6(1H)-yl)-2-(4-chlorophenyl)propan-2-ol] | 99 | 68 | 100 | 83
CN1CCc2c(n(CC(O)c3ccncc3)c3ccc(Cl)cc23)CC1 (stereo not drawn) [Compound No. 42, 2-(9-chloro-2,3,4,5-tetrahydro-3-methylazepino[4,5-b]indol-6(1H)-yl)-1-(pyridin-4-yl)ethanol] | 103 | 73 | 95 | 73
CN1CCc2c(n(/C=C/c3ccc(F)c(F)c3)c3ccc(Cl)cc23)CC1 [Compound No. 236, (E)-9-chloro-6-(3,4-difluorostyryl)-3-methyl-1,2,3,4,5,6-hexahydroazepino[4,5-b]indole] | 99 | 94 | 101 | 102
Cc1ccc2c(c1)c1c(n2CCc2ccccc2)CCN(C)CC1 [Compound No. 62, 1,2,3,4,5,6-hexahydro-3,9-dimethyl-6-phenethylazepino[4,5-b]indole] | 98 | 12 | 12 | -4
Cc1ccc(C(O)Cn2c3c(c4cc(C)ccc42)CCN(C)CC3)cc1 (stereo not drawn) [Compound No. 27, 2-(2,3,4,5-tetrahydro-3,9-dimethylazepino[4,5-b]indol-6(1H)-yl)-1-p-tolylethanol] | 101 | 95 | 99 | 92
Cc1ccc2c(c1)c1c(n2CC(=O)OC2CCCC2)CCN(C)CC1 [Compound No. 55, Cyclopentyl-2-(2,3,4,5-tetrahydro-3,9-dimethylazepino[4,5-b]indol-6(1H)-yl)acetate] | 15 | 8 | -2 | 4
Cc1ccc(C(O)Cn2c3c(c4cc(Cl)ccc42)CCN(C)CC3)cc1 (stereo not drawn) [Compound No. 26, 2-(9-chloro-2,3,4,5-tetrahydro-3-methylazepino[4,5-b]indol-6(1H)-yl)-1-p-tolylethanol] | 97 | 94 | 100 | 87
C/C(=C\n1c2c(c3cc(C)ccc31)CCN(C)CC2)c1ccc(Cl)cc1 [Compound No. 33, 6-((E)-2-(4-chlorophenyl)prop-1-enyl)-1,2,3,4,5,6-hexahydro-3,9-dimethylazepino[4,5-b]indole] | 87 | 99 | 100 | 98
Cc1ccc2c(c1)c1c(n2CCc2cncc(Cl)c2)CCN(C)CC1 [Compound No. 4, 6-(2-(5-chloropyridin-3-yl)ethyl)-1,2,3,4,5,6-hexahydro-3,9-dimethylazepino[4,5-b]indole] | 100 | 76 | 93 | 83
C/C(=C\n1c2c(c3cc(Cl)ccc31)CCN(C)CC2)c1ccc(Cl)cc1 [Compound No. 36, 9-chloro-6-((E)-2-(4-chlorophenyl)prop-1-enyl)-1,2,3,4,5,6-hexahydro-3-methylazepino[4,5-b]indole] | 88 | 95 | 97 | 99
CN1CCc2c(n(CCc3cncc(Cl)c3)c3ccc(Cl)cc23)CC1 [Compound No. 10, 9-chloro-6-(2-(5-chloropyridin-3-yl)ethyl)-1,2,3,4,5,6-hexahydro-3-methylazepino[4,5-b]indole] | 101 | 89 | 94 | 97
CN1CCc2c(n(CC(O)c3ccc(F)c(F)c3)c3ccc(Cl)cc23)CC1 (stereo not drawn) [Compound No. 58, 2-(9-chloro-2,3,4,5-tetrahydro-3-methylazepino[4,5-b]indol-6(1H)-yl)-1-(3,4-difluorophenyl)ethanol] | 98 | 88 | 100 | 99
CN1CCc2c(n(CC(=O)N3CCCCC3)c3ccc(Cl)cc23)CC1 [Compound No. 57, 2-(9-chloro-2,3,4,5-tetrahydro-3-methylazepino[4,5-b]indol-6(1H)-yl)-1-(piperidin-1-yl)ethanone] | 8 | -7 | 10 | -1
COc1ccc(C(O)Cn2c3c(c4cc(C)ccc42)CCN(C)CC3)cc1F (stereo not drawn) [Compound No. 68, 1-(3-fluoro-4-methoxyphenyl)-2-(2,3,4,5-tetrahydro-3,9-dimethylazepino[4,5-b]indol-6(1H)-yl)ethanol] | 102 | 93 | 99 | 87
Cc1ccc2c(c1)c1c(n2/C=C/c2ccccc2)CCN(C)CC1 [Compound No. 229, (E)-3,9-dimethyl-6-styryl-1,2,3,4,5,6-hexahydroazepino[4,5-b]indole] | 100 | 97 | 100 | 102
CN1CCc2c(n(CC(O)c3cccnc3)c3ccc(Cl)cc23)CC1 (stereo not drawn) [Compound No. 18, 2-(9-chloro-2,3,4,5-tetrahydro-3-methylazepino[4,5-b]indol-6(1H)-yl)-1-(pyridin-3-yl)ethanol] | 98 | 58 | 88 | 60
CN1CCc2c(n(CCc3ccccc3F)c3ccccc23)CC1 [Compound No. 237, 6-(2-fluorophenethyl)-3-methyl-1,2,3,4,5,6-hexahydroazepino[4,5-b]indole] | 96 | 70 | 99 | 103
Cc1ccc2c(c1)c1c(n2CC(O)c2ccc(C)nc2)CCN(C)CC1 (stereo not drawn) [Compound No. 23, 2-(2,3,4,5-tetrahydro-3,9-dimethylazepino[4,5-b]indol-6(1H)-yl)-1-(6-methylpyridin-3-yl)ethanol] | 58 | 17 | 67 | 17
CN1CCc2c(n(CCc3ccncc3)c3ccc(Cl)cc23)CC1 [Compound No. 5, 9-chloro-1,2,3,4,5,6-hexahydro-3-methyl-6-(2-(pyridin-4-yl)ethyl)azepino[4,5-b]indole] | 100 | 88 | 96 | 93
Cc1ccc2c(c1)c1c(n2/C=C/c2ccccc2F)CCN(C)CC1 [Compound No. 233, (E)-6-(2-fluorostyryl)-3,9-dimethyl-1,2,3,4,5,6-hexahydroazepino[4,5-b]indole] | 98 | 96 | 102 | 103
